Patent US20100247688A1 (priority 2007, published 2010)
Entries after “also recorded” stand apart in the source; their conditions may differ. Where two headings read alike, the source gives them in different places.

Experiments:
in vivo = conditions: rat
Description: AC-92 was prepared in DMSO and diluted in sterile phosphate buffered saline (final DMSO concentration 1.0%). […] Animals were sacrificed at 3 and 6 hours after dosing via lethal narcosis. Blood was sampled via cardiac puncture. Serum was prepared by allowing whole blood to stand at 4° C. for 60 min; plasma was prepared using heparin as the anti-coagulant. CSF was collected via the foramen magnum immediately after sacrifice. Brain material was collected by opening of the skull and simple excision of the right cortex. Samples were snap frozen using liquid nitrogen immediately after collection. All procedures were conducted in conformity with applicable German and EU laws on animal experimentation and the study was approved by a government appointed ethics committee.
To determine the extent of central exposure, bioavailability studies were undertaken.

hAPP Tg mice (APP751S/L) = assay: Morris Water Maze in hAPP Tg mice; assay type: in vivo, mouse; conditions: for probe trial: crossings over the former target position: 1 mg/kg, versus Tween 80 vehicle group; for performance in Morris Water Maze: other concentration of AC-91 (not 1 or 20 mg/kg) or Compounds B
Description: Therefore, mice were treated for 33 days and in the end of the treatment period behavior was evaluated in the Morris Water Maze and additionally a Object Recognition Task.
Female Tg and nTg mice with a C57BL/6×DBA background and an age of 7 months (±2 week) were randomly assigned to treatment groups 1 to 9 (n=20 for groups 3 to 7, n=15 for groups 1, 2, 8 and 9). […] All animals which were used for the present study had dark eyes and were likely to perceive the landmarks outside the MWM pool. However, it had to be excluded that seeing abilities of an animal were poor, which was controlled in the visible platform training, the so called pretest, before treatment start for all animals including reserves enclosed to the study. In case a seeing handicap for a specific animal would have been affirmed, the mouse would have been excluded from the study.
Compounds or vehicle were administered via oral gavage in a daily volume of 10 ml/kg/b.w. for 33 days.
The Morris Water Maze task was conducted in a black circular pool of a diameter of 100 cm. Tap water was filled in with a temperature of 22±1° C. and the pool was virtually divided into four sectors. A transparent platform (8 cm diameter) was placed about 0.5 cm beneath the water surface. During the whole test session, except the pretest, the platform was located in the southwest quadrant of the pool.
One day before the 4 days lasting training session animals had to perform a so called “pre-test” (two 60 sec lasting trials) to ensure that the seeing abilities of each animal were normal. Only animals that fulfilled this task were enclosed to the MWM testing.
In the MWM task, each mouse had to perform three trials on four consecutive days. A single trial lasted for a maximum of one minute. During this time, the mouse had the chance to find the hidden, diaphanous target. If the animal could not find a “way” out of the water, the investigator guided to or placed the mouse on the platform. After each trial mice were allowed to rest on the platform for 10-15 sec.
During this time, the mice had the possibility to orientate in the surrounding. Investigations took place under dimmed light conditions, to prevent the tracking system from negative influences (Kaminski; PCS, Biomedical Research Systems). On the walls surrounding the pool, posters with black, bold geometric symbols (e.g. a circle and a square) were fixed which the mice could use the symbols as landmarks for their orientation.
One swimming group per trial consisted of five to six mice, so that an intertrial time of about five to ten minutes was ensured. For the quantification of escape latency (the time [second]−the mouse needed to find the hidden platform and therefore to escape from the water), of pathway (the length of the trajectory [meter] to reach the target) and of the abidance in the goal quadrant a computerized tracking system was used. The computer was connected to a camera placed above the centre of the pool. The camera detected the signal of the light emitting diode (LED), which was fixed with a little hairgrip on the mouse's tail.
Twenty-four hours after the last trial on day 4 the mice had to fulfil a so-called probe trial. At this time, the platform was removed from the pool and during the one-minute probe trial; the experimenter counted the number of crossings over the former target position. Additionally the abidance in this quadrant as well as the three other quadrants was calculated. Through out this trial a mouse could not get any, howsoever natured, clue from the platform.

APPPS1 transgenic mice = assay: Plaque load, plaque volume and area in APPPS1 transgenic model for cerebral amyloidosis; assay type: in vivo, mouse; conditions: for increase of amyloid load as % of that expected with normal progression of the model: AC-92 after 3 months, AC-91 at month 5; for plaque volume and area smaller than vehicle-treated controls: APPPS1 mice
Description: The transgenic model and corresponding […] analysis of brain sections was provided by Prof. Mathias Jucker, Department of Cellular Neurology, Hertie-Institute for Clinical Brain Research University of Tübingen, Otfried-Müller Strasse 27, D-72076 Tübingen, Germany. APPPS1 transgenic mice express both KM670/671NL mutated human APP and L166P mutated human PS1 under the Thy-1 promoter element (Radde et al., 2005). They were treated with the compounds from the age of 126 days after birth (DAB) to 158 DAB. […] On completion of the dosing period, animals were sacrificed by lethal narcosis followed by collection of blood by cardiac puncture and recovery of brain material for sectioning and extraction of drug and relevant peptides. […] Brains were removed and postfixed at 4° C. in 4% PFA, dehydrated in 30% sucrose, and frozen. Serial coronal serial 40 μm sections were cut with a microtome and collected in cryoprotectant (30% glycerol, 45% ethylene glycol in PBS) and stored at −20° C. until use.
Free-floating sections were processed for immunohistochemistry as described elsewhere (Stalder et al., 2005). Briefly, sections were washed in TBS and blocked with 3% goat or donkey serum (Vector Laboratories Inc., Burlingame, Calif.) in 0.3% Triton-X-100 (Fisher, Fair Lawn, N.J.). The sections were incubated overnight with primary antibodies at 4° C. in 2% serum and 0.3% Triton-X-100, washed three times with TBS and incubated for 3 hours with biotin-conjugated secondary antibodies. After repeated TBS washing, sections were stained by complexing with SG blue (Vectastain ABC elite kit; Vector Laboratories). Sections were mounted on precleaned glass microscope slides (Superfrost® Plus; Langenbrinck, Teningen, Germany), dehydrated with an alcohol series, cleared in xylene and coverslipped in a xylene soluble mounting medium (Pertex®, medite GmbH, Burgdorf, Germany). Amyloid load was estimated on every 12th section throughout the entire neocortex.
In vivo experiments were performed using a very aggressive double transgenic mouse model for cerebral amyloidosis (Radde et al., 2006). APPPS1 transgenic mice expressing both KM670/671NL mutated human APP and L166P mutated human PS1 under the Thy-1 promoter element (Radde et al., 2005) were treated with the compounds from the age of 126 days after birth (DAB) to 158 DAB. Mice were treated as described in A3. above. On completion of the dosing period, samples were taken from the animals and snap frozen using liquid nitrogen as reported herein previously (see Section A3. above).
In the model, plaque load in the brain is known to increase roughly exponentially with age (Radde et al., 2005). […] These conditions should be suitable to provide insight, whether initial formation of plaques or downstream processes reversing existing plaque loads are involved in corresponding drug effects.

[1] = ACI-91 and ACI-92 levels in plasma, CSF and brain homogenates of transgenic mice; assay type: in vivo, mouse; conditions: for concentration in brain as % of plasma concentration / Kp at 33 days: 100 mg/kg ACI-91 or 50 mg/kg ACI-92, 33 days; for Kp at 33 days: mouse, brain homogenate, oral, read-out: concentration in brain as % of plasma concentration
Description: Determination of ACI-91 and ACI-92 in mouse plasma, CSF and brain homogenate samples was done by HPLC-MS/MS by Quality Assistance SA, Technoparc de Thudinie 2, B-6536 Donstiennes, Belgium.
The amounts of ACI-91 and of ACI-92 in plasma, CSF and in brain homogenates is determined after treatment of hAPP single transgenic mice (JSW, Graz) and hAPP-PS1 double-transgenic mice (Synovo, Tübingen), respectively, for 33 days with doses of 1, 5, 20 and 100 mg/kg of ACI-91 and 50 mg/kg ACI-92 and doses of 100 mg/kg of ACI-91 and 50 mg/kg ACI-92, respectively.

[2] = assay type: in vivo; conditions: daily oral gavage, 33 days; AC-91 in four different concentrations
Description: In total 171 female hAPP Tg and nTg mice with an age of 6.5 months at treatment start were enclosed to study.

Structure (SMILES): O=C1Nc2cccnc2N(C(=O)CN2CCNCC2)c2ccccc21 [des-methyl-AC-91]
- detection in CSF (in vivo; po, 50 mg/kg): No AC-91 or dm-AC-91 was detected

Structure (SMILES): CN1CCN(CC(=O)N2c3ccccc3C(=O)Nc3cccnc32)CC1 [AC-91, pirenzepine]
- escape latency in Morris Water Maze (hAPP Tg mice (APP751S/L); 1 mg/kg daily oral, 33 days): reduced relatively to the historic group
- probe trial: crossings over the former target position (hAPP Tg mice (APP751S/L)): significantly (p<0.05) more often
- probe trial: crossings over the former target position (hAPP Tg mice (APP751S/L); listed as formula II): significantly more often
- escape latency in Morris Water Maze (hAPP Tg mice (APP751S/L); 20 mg/kg daily oral, 33 days): comparable escape latency to the ntg vehicle treated mice; also recorded: reduced relatively to the historic group
- escape latency in Morris Water Maze (hAPP Tg mice (APP751S/L); 20 mg/kg daily oral, 33 days, listed as formula II): comparable escape latency to the non transgenic vehicle treated mice
- memory performance (hAPP Tg mice (APP751S/L); dose escalation to 100 mg/kg): didn't improve memory performance
- performing the Morris Water Maze task compared to the historic group (hAPP Tg mice (APP751S/L); hAPP Tg mice, 33 days): led to an improvement
- performance in Morris Water Maze (hAPP Tg mice (APP751S/L)): weak performance similar to that observed in the historic tg group
- half-life (in vivo; male, Lewis, po): ~12 h

Structure (SMILES): O=C1Nc2cccnc2Nc2ccccc21 [AC-92, LS-75]
- increase of amyloid load as % of that expected with normal progression of the model (APPPS1 transgenic mice): 55%
- increase of amyloid load as % of that expected with normal progression of the model (APPPS1 transgenic mice; listed as formula III): about 60%
- plaque volume and area smaller than vehicle-treated controls (APPPS1 transgenic mice; month 2-3): about 26%
- plaque volume and area smaller than vehicle-treated controls (APPPS1 transgenic mice; month 4-5): about 26%
- β-amyloid plaque load (APPPS1 transgenic mice; daily p.o. 50 mg/kg AC-92 or 100 mg/kg AC-91 for one month, between months 1 and 5 after birth): substantial reductions
- amyloid load (APPPS1 transgenic mice; treated animals after 3 months, 50 mg/kg daily p.o.): 0.61%
- Morris Water Maze / probe trial versus Tween 80 vehicle mice (hAPP Tg mice (APP751S/L); AC-92 treated mice): no difference to the Tween 80 mice
- performance in Morris Water Maze (hAPP Tg mice (APP751S/L)): weak performance similar to that observed in the historic tg group
- concentration in brain as % of plasma concentration ([1]; 4 months old double transgenic mice): about 5%
- concentration in CSF as % of plasma concentration ([1]; 4 months old double transgenic mice, listed as ACI92): 20%
- concentration in brain as % of plasma concentration ([1]; 8 months old single transgenic mice): 11%
- Kp at 33 days ([1]; hAPP single transgenic, 8 months old single transgenic mice): ~0.11
- Kp at 33 days ([1]; hAPP-PS1 double-transgenic, 4 months old double transgenic mice): ~0.05
- tolerability of the treatment [2]: well tolerated
- Kp (in vivo; male, Lewis, ip, 50 mg/kg): ~0.25
- concentration at 3 h (in vivo; male, Lewis, po, 50 mg/kg): ~20 nM
- concentration at 6 h (in vivo; male, Lewis, po, 50 mg/kg): ~75 nM
- enrichment in the brain (in vivo; po): enriched in the brain to a certain extent
